Values quoted from earlier work, collected in patent US12187997B2, “Integrated human organ-on-chip microphysiological systems” (President and Fellows of Harvard College, priority 2011, dated 2025).
Entries after “also recorded” stand apart in the source; their conditions may differ.

Legend:
[1] = for Organ Toxicity: Table 1
[2] = for Clearence Mechanism (for PK): Table 1
[3] = relieving dyspnea in heart failure patients

Molecule	Clearence Mechanism (for PK) [2]	toxicity in humans / in vivo [1]	Organ Toxicity [1]	metabolism and elimination [2]	clinical efficacy [3]
Cc1nnc(SCC2=C(C(=O)O)N3C(=O)[C@@H](NC(=O)Cn4cnnn4)[C@H]3SC2)s1 [Cefazolin]	–	produces pulmonary blood clots and nephrotoxicity	Lung, Kidney	–	–
COCc1c(C(C)C)nc(C(C)C)c(/C=C/[C@@H](O)C[C@@H](O)CC(=O)O)c1-c1ccc(F)cc1 [Cerivastatin]	Liver	major toxicities in vivo (rhabdylomysis) and liver toxicity	Skeletal; also recorded: muscle,; also recorded: Kidney, Liver	–	–
N.N.[Cl][Pt][Cl] [Cisplatin]	Renal	–	–	–	–
Nc1ccn([C@H]2C[C@H](O)[C@@H](COP(=O)(O)OP(=O)(O)OP(=O)(O)OP(=O)(O)OC[C@H]3O[C@@H](n4ccc(=O)[nH]c4=O)[C@H](O)[C@@H]3O)O2)c(=O)n1 [Denufosol]	Aerosol	–	–	–	–
CCOC(=O)C1=C[C@@H](OC(CC)CC)[C@H](NC(C)=O)[C@@H](N)C1 [Tamiflu]	Liver; Renal	–	children <1 yr	–	–
CC(C)(C)c1ccc(C(O)CCCN2CCC(C(O)(c3ccccc3)c3ccccc3)CC2)cc1 (centres unmarked) [Terfenadine]	–	cardiotoxic at higher doses in humans	Heart; also recorded: arrhythmia	–	–
Nesiritide	Proteolysis,; also recorded: Renal	–	–	primarily eliminated by the kidney	failed a large clinical trial for efficacy

Continued, in another order:

Clearence Mechanism (for PK) [2]	Molecule	toxicity in humans / in vivo [1]	Organ Toxicity [1]	metabolism and elimination [2]	clinical efficacy [3]
Liver, Renal	COc1cccc2c1C(=O)c1c(O)c3c(c(O)c1C2=O)C[C@@](O)(C(=O)CO)C[C@@H]3O[C@H]1C[C@H](N)[C@H](O)[C@H](C)O1 [Doxorubicin]	–	Heart, gut, and bone marrow, and skin	–	–
Renal	CC(C)NCC(O)c1ccc(O)c(O)c1 (centres unmarked) [Isoproterenol]	–	Heart	primarily metabolized and excreted by the kidney in humans	–
Liver	CC(=O)N1CCN(c2ccc(OCC3COC(Cn4ccnc4)(c4ccc(Cl)cc4Cl)O3)cc2)CC1 (centres unmarked) [Ketoconazole]	–	Liver DDI, tests	–	–
(Crosses BBB)	Cc1ccc2c(c1)c1c(n2CCc2ccc(C)nc2)CCN(C)C1 [Latrepirdine]	–	–	–	–
Liver	Cc1c(C)c2c(c(C)c1O)CCC(C)(COc1ccc(CC3SC(=O)NC3=O)cc1)O2 (centres unmarked) [Troglitazone]	–	Liver	–	–
Liver	COc1ccc(C(=O)N2CCN(c3ccc4c(c3)CCC(=O)N4)CC2)cc1OC [Vesnarinone]	–	Heart	–	–
